Columns and labels:
velvetleaf = test: Test Example 5: herbicidal effect by foliage application, plastic box (Table 20, symbol M); type: in vivo, velvetleaf (Abutilon theophrasti); settings: 320 g/ha, foliage application after 14-day growth, evaluated three weeks after application
In short: (§1)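 Plants sown in sterilized diluvial soil and grown 14 days in a greenhouse at 25° C to 30° C, then sprayed on the foliage with the compound's emulsion diluted in water to a predetermined herbicide amount. Injury to weeds and crops scored three weeks after application on a visual rating scale.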

redroot pigweed = test: Test Example 5: herbicidal effect by foliage application, plastic box (Table 20, symbol N); type: in vivo, redroot pigweed (Amaranthus retroflexus); settings: 320 g/ha, foliage application after 14-day growth, evaluated three weeks after application
In short: as §1

Italian ryegrass = test: Test Example 4: herbicidal effect by soil treatment (Table 19, symbol K); type: in vivo, Italian ryegrass (Lolium multiflorum); settings: amount of applied herbicide 320 g/ha
In short: (§2)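 Seeds were sown in sterilized diluvial soil and covered with about 1.5 cm of soil. An emulsion formulation diluted with water to a predetermined herbicide amount was sprayed evenly onto the soil surface. Plants grew in a greenhouse at 25° C. to 30° C., and the effect was scored three weeks after application using criteria from an earlier test.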

windgrass [1] = test: Test Example 5: herbicidal effect by foliage application, plastic box (Table 20, symbol L); type: in vivo, windgrass (Apera spica-venti); settings: 320 g/ha, foliage application after 14-day growth, evaluated three weeks after application
In short: as §1

barnyard grass = test: Test Example 4: herbicidal effect by soil treatment (Table 19, symbol H); type: in vivo, barnyard grass (Echinochloa crus-galli); settings: amount of applied herbicide 320 g/ha
In short: as §2

windgrass [2] = test: Test Example 4: herbicidal effect by soil treatment (Table 19, symbol L); type: in vivo, windgrass (Apera spica-venti); settings: amount of applied herbicide 320 g/ha
In short: as §2

lambsquarters [3] = test: Test Example 5: herbicidal effect by foliage application, plastic box (Table 20, symbol O); type: in vivo, lambsquarters (Chenopodium album); settings: 320 g/ha, foliage application after 14-day growth, evaluated three weeks after application
In short: as §1

late watergrass = test: Test Example 1: herbicidal activity, application before weed generation under submerged conditions (Table 16, symbol A); type: in vivo, late watergrass (Echinochloa oryzicola); settings: amount of applied herbicide 320 g/ha
In short: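 Submerged Wagner pots (alluvial soil, 4 cm water) sown with weed seeds and planted with 2.5-leaf rice seedlings; emulsifiable concentrate diluted in water applied to water surface on sowing day. Held in greenhouse at 25-30 °C; injury scored 0-5 by herbicidal rate after three weeks.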

wild oat [4] = test: Test Example 4: herbicidal effect by soil treatment (Table 19, symbol I); type: in vivo, wild oat (Avena fatua); settings: amount of applied herbicide 320 g/ha
In short: as §2

Japanese bulrush = test: Test Example 2: herbicidal activity, application during weed generation under submerged conditions (Table 17, symbol B); type: in vivo, Japanese bulrush (Schoenoplectus juncoides); settings: AAH 320 g/ha; application during weed generation, submerged conditions
In short: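 Alluvial soil in Wagner pots was flooded to 4 cm depth and sown with the three weeds together; pots were kept in a greenhouse at 25° C. to 30° C. At the one to two leaf stage, an emulsion formulation diluted in water to a set rate went onto the water surface; scored three weeks later.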

wild oat [5] = test: Test Example 5: herbicidal effect by foliage application, plastic box (Table 20, symbol I); type: in vivo, wild oat (Avena fatua); settings: 320 g/ha, foliage application after 14-day growth, evaluated three weeks after application
In short: as §1

green foxtail [6] = test: Test Example 4: herbicidal effect by soil treatment (Table 19, symbol G); type: in vivo, green foxtail (Setaria viridis); settings: amount of applied herbicide 320 g/ha
In short: as §2

green foxtail [7] = test: Test Example 5: herbicidal effect by foliage application, plastic box (Table 20, symbol G); type: in vivo, green foxtail (Setaria viridis); settings: 320 g/ha, foliage application after 14-day growth, evaluated three weeks after application
In short: as §1

persian speedwell = test: Test Example 5: herbicidal effect by foliage application, plastic box (Table 20, symbol R); type: in vivo, Persian speedwell (Veronica persica); settings: 320 g/ha, foliage application after 14-day growth, evaluated three weeks after application
In short: as §1

lambsquarters [8] = test: Test Example 4: herbicidal effect by soil treatment (Table 19, symbol O); type: in vivo, lambsquarters (Chenopodium album); settings: amount of applied herbicide 320 g/ha
In short: as §2

chickweed = test: Test Example 4: herbicidal effect by soil treatment (Table 19, symbol P); type: in vivo, common chickweed (Stellaria media); settings: amount of applied herbicide 320 g/ha
In short: as §2

Chinese sprangletop = test: Test Example 3: herbicidal effect by foliage application, Wagner pot (Table 18, symbol D); type: in vivo, chinese sprangletop (Leptochloa chinensis); settings: 320 g/ha
In short: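 Plants were sown in alluvial soil held under 0.1–0.5 cm standing water and grown 14 days in a greenhouse at 25–30 °C. An emulsifiable formulation, water-diluted to the set dose, was then sprayed onto the foliage, and effects were scored three weeks later using previously defined criteria.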

Row | SMILES | herbicidal effect on M: velvetleaf (evaluation grade 0-5) (velvetleaf) | herbicidal effect on N: redroot pigweed (evaluation grade 0-5) (redroot pigweed) | Herbicidal effect by soil treatment, K: Italian ryegrass (Italian ryegrass) | herbicidal effect on L: windgrass (evaluation grade 0-5) (windgrass [1]) | Herbicidal effect by soil treatment, H: barnyard grass (barnyard grass) | Herbicidal effect by soil treatment, L: windgrass (windgrass [2]) | herbicidal effect on O: lambsquarters (evaluation grade 0-5) (lambsquarters [3]) | Herbicidal effect, A: late watergrass (late watergrass) | Herbicidal effect by soil treatment, I: wild oat (wild oat [4]) | herbicidal effect rating, B: Japanese bulrush (Japanese bulrush) | herbicidal effect on I: wild oat (evaluation grade 0-5) (wild oat [5]) | Herbicidal effect by soil treatment, G: green foxtail (green foxtail [6]) | herbicidal effect on G: green foxtail (evaluation grade 0-5) (green foxtail [7]) | herbicidal effect on R: persian speedwell (evaluation grade 0-5) (persian speedwell) | Herbicidal effect by soil treatment, O: lambsquarters (lambsquarters [8]) | Herbicidal effect by soil treatment, P: chickweed (chickweed) | herbicidal effect on Chinese sprangletop (D) (Chinese sprangletop)
1 | CCCC(=O)Oc1c(C)nn(C)c(=O)c1-c1c(-c2ccc(C#N)cc2)sc2c(Cl)cccc12 [4-032] | 4 (Herbicidal rate of 70% or more and less than 90%) | 5 (Herbicidal rate of 90% or more (almost completely withered)) | 0 (Herbicidal rate of 5% or less (almost no effect)) | 4 (Herbicidal rate of 70% or more and less than 90%) | 0 (Herbicidal rate of 5% or less (almost no effect)) | 0 (Herbicidal rate of 5% or less (almost no effect)) | 3 (Herbicidal rate of 40% or more and less than 70%) | 0 (Herbicidal rate of 5% or less (almost no effect)) | 0 (Herbicidal rate of 5% or less (almost no effect)) | 3 (Herbicidal rate of 40% or more and less than 70%) | 0 (Herbicidal rate of 5% or less (almost no effect)) | 0 (Herbicidal rate of 5% or less (almost no effect)) | 0 (Herbicidal rate of 5% or less (almost no effect)) | 5 (Herbicidal rate of 90% or more (almost completely withered)) | 0 (Herbicidal rate of 5% or less (almost no effect)) | 3 (Herbicidal rate of 40% or more and less than 70%) | 3 (Herbicidal rate of 40% or more and less than 70%)
2 | CCCC(=O)Oc1c(C)nn(C)c(=O)c1-c1c(-c2ccc(F)cc2OCC)sc2c(Cl)cccc12 [4-036] | 5 (Herbicidal rate of 90% or more (almost completely withered)) | 5 (Herbicidal rate of 90% or more (almost completely withered)) | 0 (Herbicidal rate of 5% or less (almost no effect)) | 4 (Herbicidal rate of 70% or more and less than 90%) | 3 (Herbicidal rate of 40% or more and less than 70%) | 0 (Herbicidal rate of 5% or less (almost no effect)) | 2 (Herbicidal rate of 20% or more and less than 40%) | 4 (Herbicidal rate of 70% or more and less than 90%) | 0 (Herbicidal rate of 5% or less (almost no effect)) | 0 (Herbicidal rate of 5% or less (almost no effect)) | 0 (Herbicidal rate of 5% or less (almost no effect)) | 3 (Herbicidal rate of 40% or more and less than 70%) | 5 (Herbicidal rate of 90% or more (almost completely withered)) | 4 (Herbicidal rate of 70% or more and less than 90%) | 1 (Herbicidal rate of 5% or more and less than 20%) | 2 (Herbicidal rate of 20% or more and less than 40%) | 5 (Herbicidal rate of 90% or more (almost completely withered))
3 | CCCC(=O)Oc1c(C)nn(C)c(=O)c1-c1c(-c2ccc(C(F)(F)F)cc2)sc2c(F)cccc12 [4-045] | 4 (Herbicidal rate of 70% or more and less than 90%) | 4 (Herbicidal rate of 70% or more and less than 90%) | 0 (Herbicidal rate of 5% or less (almost no effect)) | 4 (Herbicidal rate of 70% or more and less than 90%) | 0 (Herbicidal rate of 5% or less (almost no effect)) | 3 (Herbicidal rate of 40% or more and less than 70%) | 3 (Herbicidal rate of 40% or more and less than 70%) | 4 (Herbicidal rate of 70% or more and less than 90%) | 0 (Herbicidal rate of 5% or less (almost no effect)) | 0 (Herbicidal rate of 5% or less (almost no effect)) | 0 (Herbicidal rate of 5% or less (almost no effect)) | 0 (Herbicidal rate of 5% or less (almost no effect)) | 0 (Herbicidal rate of 5% or less (almost no effect)) | 5 (Herbicidal rate of 90% or more (almost completely withered)) | 0 (Herbicidal rate of 5% or less (almost no effect)) | 3 (Herbicidal rate of 40% or more and less than 70%) | 3 (Herbicidal rate of 40% or more and less than 70%)
4 | CCCC(=O)Oc1c(C)nn(C)c(=O)c1-c1c(-c2ccc(C#N)cc2)sc2c(F)cccc12 [4-053] | 5 (Herbicidal rate of 90% or more (almost completely withered)) | 5 (Herbicidal rate of 90% or more (almost completely withered)) | 4 (Herbicidal rate of 70% or more and less than 90%) | 4 (Herbicidal rate of 70% or more and less than 90%) | 0 (Herbicidal rate of 5% or less (almost no effect)) | 0 (Herbicidal rate of 5% or less (almost no effect)) | 4 (Herbicidal rate of 70% or more and less than 90%) | 5 (Herbicidal rate of 90% or more (almost completely withered)) | 0 (Herbicidal rate of 5% or less (almost no effect)) | 2 (Herbicidal rate of 20% or more and less than 40%) | 2 (Herbicidal rate of 20% or more and less than 40%) | 2 (Herbicidal rate of 20% or more and less than 40%) | 0 (Herbicidal rate of 5% or less (almost no effect)) | 5 (Herbicidal rate of 90% or more (almost completely withered)) | 3 (Herbicidal rate of 40% or more and less than 70%) | 4 (Herbicidal rate of 70% or more and less than 90%) | 3 (Herbicidal rate of 40% or more and less than 70%)

Reference: US20230085307A1, “PYRIDAZINONE COMPOUND AND HERBICIDE” (NISSAN CHEMICAL CORPORATION, priority 2019, published 2023)
